Assay results reported in ChEMBL document CHEMBL3045494, “Inhibitory effect and structureactivity relationship of some Biginelli-type pyrimidines against HSV-1” (Med Chem Res, 2013).
Calls of active or inactive are those of the source.

Key:
Human alphaherpesvirus 1 = assay: Antiviral activity against Human herpesvirus 1 strain KOS infected Vero cells after 72 hr by plaque reduction assay; type: functional, organism-based
[1] = Therapeutic index, ratio of CC50 for African green monkey Vero cells to IC50 for Herpes simplex virus 1 KOS; type: cell-based; details: read-out: Ratio CC50/IC50
Vero = assay: (§1) Cytotoxicity against Chlorocebus aethiops (African green monkey) Vero cells after 72 hr by XTT assay; type: cell-based; details: chlorocebus sabaeus, vero, 72 h
[2] = Selectivity index, ratio of CC25 for African green monkey Vero cells to IC25 for Herpes simplex virus 1 KOS; type: toxicity, cell-based; details: read-out: Selectivity Index
[3] = as §1; type: cell-based; details: chlorocebus sabaeus, Vero cells
[4] = Human alphaherpesvirus 1, KOS, Vero, 72 h
[5] = Human alphaherpesvirus 1, KOS, Vero, 72 h, read-out: IC50

Row | Compound | IC50 (Human alphaherpesvirus 1; [5]) | IC50 (Human alphaherpesvirus 1; vero) | IC25 (Human alphaherpesvirus 1; [4]) | selectivity ratio [1] | CC25 (Vero) | CC50 (Vero) | selectivity ratio [2] | IC25 (Human alphaherpesvirus 1) | CC50 at 72 h [3]
1 | CC1=C(C(=O)Nc2ccccc2Cl)C(c2ccccc2Cl)NC(=O)N1 (stereo not given) | 67.4 µM | – | 0.1 µM | > 1.4 | Non-toxic | Non-toxic | > 1000 | – | –
2 | CC1=C(C(=O)Nc2ccc(F)cc2)C(c2ccccc2)NC(=O)N1 (stereo not given) | > 100 µM | – | 0.9 µM | > 1 | 43.8 µM | – | 48.6 | – | > 100 µM
3 | CC1=C(C(=O)Nc2ccccc2Cl)C(C(C)c2ccccc2)NC(=O)N1 (stereo not given) | > 100 µM | – | 21.3 µM | < 1 | 1.7 µM | – | 0.07 | – | 91.5 µM
4 | CC1=C(C(=O)Nc2cccnc2)C(c2cccs2)NC(=O)N1 (stereo not given) | – | Not Active | – | < 1 | > 100 µM | – | < 1 | inactive | > 100 µM
5 | CC1=C(C(=O)Oc2ccccc2)C(c2ccccc2)NC(=O)N1 (stereo not given) | 89.7 µM | – | 10.4 µM | > 1.1 | 98 µM | – | 9.4 | – | > 100 µM
6 | CCOC(=O)C1=C(C)NC(=O)NC1c1ccc(Br)cc1 (stereo not given) | – | – | – | – | 67.5 µM | – | – | – | –
7 | COc1cccc(C2NC(=O)NC(C)=C2C(=O)Nc2ccccc2Cl)c1 (stereo not given) | > 100 µM | – | 9.1 µM | > 1 | 45.6 µM | – | 5 | – | > 100 µM
8 | CC1=C(C(=O)Nc2ccccc2Cl)C(c2cccs2)NC(=O)N1 (stereo not given) | 81.5 µM | – | 25.2 µM | > 1.2 | 98.9 µM | – | 3.9 | – | > 100 µM
9 | CC1=C(C(=O)Nc2ccccc2Cl)C(c2ccc(C)cc2)NC(=O)N1 (stereo not given) | 10.5 µM | – | 0.08 µM | > 10 | > 100 µM | – | > 1250 | – | > 100 µM
10 | CC1=C(C(=O)Nc2ccc(Cl)cc2)C(c2cnc(CS)n2Nc2ccccc2)NC(=O)N1 (stereo not given) | > 100 µM | – | 37 µM | > 1 | 53.9 µM | – | 1.4 | – | > 100 µM
11 | CC1=C(C(=O)Nc2ccccc2Cl)C(c2ccc([N+](=O)[O-])cc2)NC(=O)N1 (stereo not given) | 81.9 µM | – | 0.6 µM | > 1.2 | Non-toxic | Non-toxic | > 167 | – | –
12 | CC1=C(C(=O)Nc2cccc(Cl)c2)C(c2cccs2)NC(=O)N1 (stereo not given) | – | Not Active | – | < 1 | 87.9 µM | – | < 1 | inactive | > 100 µM
13 | CC1=C(C(=O)Nc2ccccc2Cl)C(c2ccccc2Br)NC(=O)N1 (stereo not given) | 59.8 µM | – | 13.9 µM | > 1.6 | 58.8 µM | – | 4.2 | – | > 100 µM
14 | CC1=C(C(=O)Nc2ccccn2)C(c2cccs2)NC(=O)N1 (stereo not given) | > 100 µM | – | 97.7 µM | > 1 | > 100 µM | – | > 1 | – | > 100 µM
15 | CC1=C(C(=O)Nc2ccccc2Cl)C(c2cccc([N+](=O)[O-])c2)NC(=O)N1 (stereo not given) | 46.1 µM | – | 0.1 µM | > 2.1 | Non-toxic | Non-toxic | > 1000 | – | –
16 | CC1=C(C(=O)OC(C)C)C(c2cccs2)NC(S)=N1 (stereo not given) | 28 µM | – | 8.5 µM | 1.9 | 5.7 µM | – | 0.6 | – | 53.9 µM
17 | CCOC(=O)C1=C(C)N=C(S)NC1c1cccs1 (stereo not given) | > 100 µM | – | 14 µM | – | 87.3 µM | – | 6.2 | – | 100 µM
18 | CCCC1NC(=O)NC(C)=C1C(=O)OCC (stereo not given) | – | Not Active | – | 1 | Non-toxic | Non-toxic | 1 | inactive | –
19 | CC1=C(C(=O)Nc2ccccc2Cl)C(c2ccc(Cl)cc2)NC(=O)N1 (stereo not given) | 13 µM | – | 0.16 µM | > 6.6 | Non-toxic | Non-toxic | > 625 | – | –
20 | CCOC(=O)C1=C(C)NC(=O)NC1c1cnc(CS)n1NCc1ccccc1 (stereo not given) | – | Not Active | – | 1 | Non-toxic | Non-toxic | 1 | inactive | –

Continued, in another order:

Row | IC50 (Human alphaherpesvirus 1; [5]) | IC50 (Human alphaherpesvirus 1; vero) | Compound | IC25 (Human alphaherpesvirus 1; [4]) | selectivity ratio [1] | CC25 (Vero) | CC50 (Vero) | selectivity ratio [2] | IC25 (Human alphaherpesvirus 1) | CC50 at 72 h [3]
21 | > 100 µM | – | CC1=C(C(=O)Oc2ccccc2)C(c2ccccc2)NC(=S)N1 (stereo not given) | 93.2 µM | > 1 | Non-toxic | Non-toxic | > 1.1 | – | –
22 | – | Not Active | COC(=O)C1=C(C)N(C)C(=O)NC1c1ccc(F)cc1 (stereo not given) | – | 1 | Non-toxic | Non-toxic | 1 | inactive | –
23 | – | Not Active | COC(=O)C1=C(C)NC(=O)NC1c1ccc(F)cc1 (stereo not given) | – | 1 | Non-toxic | Non-toxic | 1 | inactive | –
24 | – | Not Active | CCOC(=O)C1=C(C)N(C)C(=O)NC1c1ccc(F)cc1 (stereo not given) | 99 µM | 1 | Non-toxic | Non-toxic | > 1 | – | –
25 | 43.3 µM | – | CC1=C(C(=O)Nc2ccc(Br)cc2)C(c2ccccc2)NC(=O)N1 (stereo not given) | 0.2 µM | > 2.3 | 71.3 µM | – | 356 | – | > 100 µM
26 | 7.9 µM | – | CCCOC(=O)C1=C(C)NC(=S)NC1c1cccs1 (stereo not given) | 1.5 µM | 2.9 | 0.5 µM | – | 0.3 | – | 23.6 µM
27 | 32.7 µM | – | CC1=C(C(=O)Nc2ccccc2Cl)C(c2ccc(Br)cc2)NC(=O)N1 (stereo not given) | 0.09 µM | > 3 | 84.3 µM | – | 936 | – | > 100 µM
28 | 122 µM | – | CCOC(=O)C1=C(C)NC(=S)NC1c1ccc(Br)cc1 (stereo not given) | 87.3 µM | 0.31 | 9.3 µM | – | 0.1 | – | 38.9 µM
29 | > 100 µM | – | COC(=O)C1=C(C)NC(=S)NC1c1cccs1 (stereo not given) | 92.5 µM | > 1 | Non-toxic | Non-toxic | > 1.1 | – | –
30 | – | Not Active | CCOC(=O)C1=C(C)NC(=O)NC1c1ccc(F)cc1 (stereo not given) | – | 1 | Non-toxic | Non-toxic | 1 | inactive | –
31 | – | Not Active | CCOC(=O)C1=C(C)NC(=O)NC1c1ccccc1 (stereo not given) | 133 µM | 1 | Non-toxic | Non-toxic | > 1 | – | –
